According to paper PMC3020970, “K70Q Adds High-Level Tenofovir Resistance to “Q151M Complex” HIV Reverse Transcriptase through the Enhanced Discrimination Mechanism” (PLoS ONE, 2011):
Where two headings read alike, the source gives them in different places.

What was measured:
Type in all cases: cell-based
[1] = test system: HIV-1 clinical isolate 2 (Q151Mc + K70Q); assay: Single-cycle drug susceptibility assay (MAGIC-5 cells), clinical isolate 2; details: Human immunodeficiency virus 1; clinical isolate 2, MAGIC-5 cells
Procedure: (§1) HIV was isolated from fresh plasma immediately after collection of clinical samples from study participants at the outpatient clinic of the AIDS Clinical Center (ACC), International Medical Center of Japan. The Institutional Review Board approved this study (IMCJ-H13-80) and a written consent was obtained from all participants.
(§2) Susceptibilities to various RT inhibitors were determined using the MAGIC-5 cells which are HeLa cells stably transfected with a β-galactosidase gene under the control of an HIV long terminal repeat promoter, and with vectors that express the CD4 receptor and the CCR5 co-receptor under the control of the CMV promoter as described previously. Briefly, MAGIC-5 cells were infected with diluted virus stock (100 blue forming units) in the presence of increasing concentrations of RT inhibitors, cultured for 48 h, fixed, and stained with X-Gal (5-bromo-4-chloro-3-indolyl-β-D-galacto-pyranoside). The stained cells were counted under a light microscope.

[2] = test system: HIV-1 clinical isolate 1 (Q151Mc-containing); assay: Single-cycle drug susceptibility assay (MAGIC-5 cells), clinical isolate 1; details: Human immunodeficiency virus 1; clinical isolate 1, MAGIC-5 cells
Procedure: as §1, §2

[3] = test system: HIV-1 NL4-3 strain (WT); assay: microbe, parasite or virus in culture
Procedure: as §2

[4] = Human immunodeficiency virus 1, NL43, WT, MAGIC-5 cells, Table S1, read-out: EC50
[5] = Human immunodeficiency virus 1, NL43, MAGIC-5

SMILES	EC50 [1] [nM]	EC50 [2] [nM]	EC50 [3, 4] [nM]	EC50 [3, 5] [nM]
O=C1Nc2ccc(Cl)cc2[C@@](C#CC2CC2)(C(F)(F)F)O1 [EFV, efavirenz]	> 1000	> 1000	2 ± 0.1	
Nc1nc(=O)n([C@@H]2CS[C@H](CO)O2)cc1F [FTC, emtricitabine]	2100 ± 170	3500 ± 120		400 ± 30
Cc1cn([C@H]2C[C@H](N=[N+]=[N-])[C@@H](CO)O2)c(=O)[nH]c1=O [AZT, zidovudine]				23 ± 2
Cc1ccnc2c1NC(=O)c1cccnc1N2C1CC1 [NVP, nevirapine]	> 10000	> 10000	50 ± 4	
